# Data: patent US7129218B2, “Use of rhamnolipids in wound healing, treatment and prevention of gum disease and periodontal regeneration” (Paradigm Biomedical, Inc., priority 1999, dated 2006)
# Where a name gives a salt, the structure may show the parent alone.
# Legend:
# [1] = test system: mice; conditions: doses that failed to produce antidepressant effects in control animals; cited from earlier work
# [2] = test system: burn wounds; experiment: Burn wounds, 7% body surface, topical treatment (rats); assay type: in vivo, Sprague-Dawley rats; conditions: 1% chlorhexidine hydrochloride in combination with BAC-3 in ointment, burn wounds
# Procedure: The wounding of animals was performed according to the Protocol for Animal Use and Care at the University of California-Davis (hereafter UC-Davis). The entire animal protocol required 70 Sprague-Dawley rats: 30 rats for incision wounds and 40 rats for burn wounds. Among them 36 rats were burned over 7% of their skin and 4 rats were burned over 15% of their skin. Incision wounds of whole skin and burn wounds were treated topically with 2 test doses of the pharmaceutical preparation of di-rhamnolipid BAC-3. […] D.E.A. Hamburg); 23.8 g Lanolinum (Producer I.O.I. Hamburg); 4.7 g Cholesterin (Producer: Solvay, Wiena, Austria); Water Number: 320); or b). 1%; 0.1% active rhamnolipid (BAC-3) with antiseptic (chlorhexidine hydrochloride-[…]). Eucerin with BAC-3 was administrated twice daily during healing. The same experiment had one control group without the treatment, and one control group which was treated with ointment+1% chlorhexidine hydrochloride. During the experiment, animal body weight and behavior was checked every third day, and photographs were taken periodically. Burn wounds. The consecutive burn wounds should ideally be identical in depth and extent. The standard method defines the size and location of the burn wound, the temperature gradient, duration of exposure and method of applying the burn. The wound surface areas tested were of two different sizes. One size to 7% of the body surface, which enables one to compare the rate of wound healing with different percentage of BAC-3 and the other size to 15% of the body surface, which is a sufficient size so that healing could not occur by contraction alone. On the other hand, the total wound surface area should not cause major systematic problems. The latter can be concluded from undisturbed weight gain of the animals. The standard animal burn was performed by techniques and device described by Walker. The burning devices were prepared using a model device ordered from U.S. Army Surgical Research Unit, Experimental Surgery, Army Medical Center, Fort Sam Houston, Tex. 78234. […] The surface of the skin was measured for every animal using Mech's formula: A=kW^2/3; A=surface area in cm^2; W=body weight in grams; k=10. Method of burning. Each animal was anesthetized with sodium pentobarbital administered i/p (5 mg/25 g). (Producer: Veterinary Laboratory Inc. Lenexa, Kans.). The hair over the dorsum was clipped with animal clippers. The animal was placed supine in the burning device and the extremities were tied; the malleable retractor was placed over the animal and secured snugly with plastic straps. The entire device was then picked up by the retractor ends with forceps and the exposed area was immersed in boiling water. Ten seconds of exposure was sufficient to produce a full-thickness burn. On removal from the water, the dorsum was quickly dried by rolling on a towel and the animal was released and individually caged. This procedure produced a uniform burn with sharp margins. On post burn days 7, 14 and 45, animals were sacrificed by overdose of sodium pentobarbital and skin specimens were taken for histopathology. Specimens included the wound bed as well as the healthy skin of the wound margins. The specimens were fixed, and two stainings were routinely performed: Hematoxylin-Eosin (H&E) for microscopic evaluation, Verhoeff's staining for a better visualization of the crust and the regenerating dermis, and the alpha smooth muscle acting to identify the myofibroblasts. Microscopic findings were interpreted by a veterinarian pathologist. During the microscopic and macroscopic observations, four wound healing parameters were evaluated: crust formation, re-epithelialization, formation of granulation tissue and inflammation. 36 rats were divided into 6 groups. Each group had six animals. After burning rats according to the above-described procedure, each rat was caged individually. […]
# [3] = test system: Wistar Kyoto (WKY) rats; conditions: cited from earlier work
# [4] = test system: Wistar Kyoto (WKY) rats; conditions: cited from earlier work; remark: listed apart in the source
compound,measurement,setting,value
Cc1nc2n(c(=O)c1CCN1CCC(c3noc4cc(F)ccc34)CC1)CCCC2 [risperidone],PCP-induced enhancement of immobility in the forced swimming test,[1],attenuated
"[H]/N=C(\N/C(=N/[H])NCCCCCCNC(=N)NC(=N)Nc1ccc(Cl)cc1)Nc1ccc(Cl)cc1 [chlorhexidine hydrochloride, reference compound]",wound irritation (rats scratched the wounds),[2],irritated wounds
Cc1nc2sccn2c(=O)c1CCN1CCC(=C(c2ccc(F)cc2)c2ccc(F)cc2)CC1 [ritanserin],PCP-induced enhancement of immobility in the forced swimming test,[1],attenuated
CNCCCN1c2ccccc2CCc2ccccc21 [desipramine],immobility in the forced swim test,[3],reduces
same,incidence of stress ulcer,[4],reduces
